Data on three compounds can be found in PMC5028030, “Costimulatory Effects of an Immunodominant Parasite Antigen Paradoxically Prevent Induction of Optimal CD8 T Cell Protective Immunity” (PLoS Pathogens, 2016).

The subject of one assay is CD4^+ T cells. Set-up: method as in manuscript in preparation. Particulars: after TS vaccination; I-A^d-restricted; ref manuscript in preparation; cited from earlier work.
A further assay addresses WT TS (Trypanosoma cruzi, UniProt P23253). The assay can be described thus: Inhibition of TS enzymatic activity (MuNANA hydrolysis). Type of assay: biochemical. As to the method: (§1) Fig 6 TS enzymatic activity is associated with costimulatory effects. In panel A, enzymatic activities of WT and TSKd1 mutant proteins were determined in lysates and supernatants of 293T cells transfected with WT TS and TSKd1 null DNA using fluorometric TS enzymatic activity assays. […] CD8^+ T cells from naïve 4–5 week old BALB/c mice were purified by positive magnetic bead selection and incubated with suboptimal doses of PMA (12.5ng/ml) ± WT or TSKd1 null rTS. After 3 days, proliferation was measured by ^3H-Thymidine incorporation. Shown are incorporated ^3H-Thymidine counts per minute (CPM) above suboptimal PMA treatment alone. […]
Trans-sialidase enzymatic activity was assayed as described previously. […] The acid elutions were incubated at 95°C for 45 minutes, the reactions neutralized with glycine/NaOH (pH 10) and released 4-MU measured by fluorescence emission at 450nm and compared to a standard curve. […] The reaction was continuously monitored in a SpectraMax i3 Multi-Mode Detection Platform (Molecular Devices) after pre-incubation of the enzyme with the peptide for 10 min at room temperature. The residual activity at each concentration of TSKd1 was obtained by dividing the slope calculated at each concentration of TSKd1 (Vi) by the initial velocity determined in the absence of peptide (V0). […]

Another assay concerns naïve CD8^+ T cells. The assay can be described thus: CD8^+ T cell costimulation assay. Type of assay: cell-based, BALB/c mouse. To be noted: inhibitor added to TS/PMA activated CD8^+ T cell cultures. Here is the method: as §1, with “alone. Similar TS costimulation assays using naïve CD8^+ T cells were conducted with CD45 inhibitor PTP or Src-family kinase inhibitor PP2 added (C). In panel D, increasing concentrations of TSKd1 peptide were added to constant amounts of WT TS in TS enzyme assays.” for “alone.”
CD8^+ T cells purified by positive Miltenyi magnetic bead selection from naïve 4–5 week old BALB/c mice were added to 96-well flat bottom plates (2x10^5 cells/well) and stimulated with suboptimal doses of PMA (12.5 ng/ml) with or without recombinant WT vs TSKd1 null TS protein (25–100 μg/ml) similar to TS costimulatory assays conducted previously. […] Ultima Gold F scintillation fluid was added and filtermats counted using a Perkin Elmer TriLux MicroBeta 1450 instrument. […]

Entries after “also recorded” stand apart in the source; their conditions may differ. Peptide text beside a SMILES is read from it.

Sequence of WT TS (P23253 whole entry): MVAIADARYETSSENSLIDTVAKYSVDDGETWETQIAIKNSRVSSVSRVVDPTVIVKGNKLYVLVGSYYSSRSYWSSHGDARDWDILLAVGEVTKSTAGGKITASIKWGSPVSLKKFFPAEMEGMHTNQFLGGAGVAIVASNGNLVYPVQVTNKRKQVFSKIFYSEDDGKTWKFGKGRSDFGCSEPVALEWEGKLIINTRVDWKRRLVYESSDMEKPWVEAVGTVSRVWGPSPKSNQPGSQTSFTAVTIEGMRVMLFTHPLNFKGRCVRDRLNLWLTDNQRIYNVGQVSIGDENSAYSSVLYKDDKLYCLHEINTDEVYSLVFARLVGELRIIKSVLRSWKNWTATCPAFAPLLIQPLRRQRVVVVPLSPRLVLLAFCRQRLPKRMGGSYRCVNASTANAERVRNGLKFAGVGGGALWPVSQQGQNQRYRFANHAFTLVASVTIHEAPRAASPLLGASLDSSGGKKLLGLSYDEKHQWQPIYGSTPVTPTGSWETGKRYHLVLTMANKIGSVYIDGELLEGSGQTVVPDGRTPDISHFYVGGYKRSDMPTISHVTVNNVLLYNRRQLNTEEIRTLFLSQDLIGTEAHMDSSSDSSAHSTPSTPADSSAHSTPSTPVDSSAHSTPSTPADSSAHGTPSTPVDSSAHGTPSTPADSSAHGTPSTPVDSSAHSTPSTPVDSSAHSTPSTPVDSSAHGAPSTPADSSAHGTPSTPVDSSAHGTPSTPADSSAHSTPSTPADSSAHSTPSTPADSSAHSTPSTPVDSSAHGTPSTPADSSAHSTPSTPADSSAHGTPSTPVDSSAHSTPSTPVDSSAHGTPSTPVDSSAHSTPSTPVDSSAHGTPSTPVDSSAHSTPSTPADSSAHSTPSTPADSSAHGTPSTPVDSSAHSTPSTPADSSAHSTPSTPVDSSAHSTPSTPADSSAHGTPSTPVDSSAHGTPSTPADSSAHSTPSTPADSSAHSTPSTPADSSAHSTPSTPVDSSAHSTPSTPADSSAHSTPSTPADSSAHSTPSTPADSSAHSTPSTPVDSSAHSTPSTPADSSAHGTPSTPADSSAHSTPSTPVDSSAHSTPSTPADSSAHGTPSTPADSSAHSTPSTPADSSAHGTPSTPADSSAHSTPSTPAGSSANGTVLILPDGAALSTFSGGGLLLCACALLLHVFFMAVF

In the case of KVTERVVHSFRLPALVNV [p7], in the assay with CD4^+ T cells, the “CD4^+ T cell response to peptide” value was “most potent CD4^+ T cell responses of any peptide tested”.

The IC50 is the concentration that gives 50% inhibition. A higher IC50 goes with weaker potency in that assay. `CC[C@H](C)[C@H](N)C(=O)N[C@@H](Cc1ccc(O)cc1)C(=O)N[C@@H](CC(N)=O)C(=O)N[C@H](C(=O)NCC(=O)N[C@@H](CCC(N)=O)C(=O)N[C@H](C(=O)N[C@@H](CO)C(=O)N[C@H](C(=O)O)[C@@H](C)CC)C(C)C)C(C)C` [TSKd1, IYNVGQVSI] (H-IYNVGQVSI-OH) displayed an IC50 against WT TS of 20 ± 3 µM.

For the compound `CC(C)(C)C(=O)Nc1ccc2c(c1)C(=O)C(=O)c1ccccc1-2` [PTP, N-[(9-10-dioxo-9,10-dihydro-phenanthren-2-yl)-2,2-dimethyl-propionamide]], the “inhibition of TS costimulatory activity” value with naïve CD8^+ T cells is “blocked; also recorded: prevent co-stimulation of naïve CD8^+ T cells”.
